# In patent US6800650B2, “Pyridine and quinoline derivatives” (Hoffmann-La Roche Inc., priority 2002, dated 2004):
# Biological target: T1, human DPP-IV (Homo sapiens, UniProt P27487)
# T1 construct: made in house; host or cells: Pichia pastoris, purified from the culture medium
# Test: DPP-IV activity assay (colorimetric / fluorometric), IC50 determination
# Format: biochemical
# Settings: natural human DPP-IV from human plasma pool or recombinant human DPP-IV; 37° C., pH 7.8
# Experimental: The following tests were carried out in order to determine the activity of the compounds of formula I.
# Activity of DPP-IV inhibitors are tested with natural human DPP-IV derived from a human plasma pool or with recombinant human DPP-IV. Human citrate plasma from different donors is pooled, filtered through a 0.2 micron membrane under sterile conditions, and aliquots of 1 ml are shock frozen and stored at −120° C. until used. In the colorimetric DPP-IV assay 5 to 10 μl human plasma, and in the fluorometric assay 1.0 μl of human plasma in a total assay volume of 100 μl is used as an enzyme source. The cDNA of the human DPP-IV sequence of amino acid 31- to 766, restricted for the N-terminus and the transmembrane domain, is cloned into pichia pastoris. The sequence is available under Accession Number NM_001935. It is also disclosed, for example, in Misumi et al. (1992), molecular cloning and sequence analysis of human dipeptidyl peptidase IV, a serine proteinase of the cell surface. Biochim Biophys. Acta 1131(3), 333-336. Human DPP-IV is expressed and purified from the culture medium using conventional column chromatography including size exclusion and anion and cation chromatography. The purity of the final enzyme preparation of Coomassie blue SDS-PAGE is >95%. In the colorimetric DPP-IV assay 20 ng rec.-h DPP-IV and in the fluorometric assay 2 ng rec-h DPP-IV in a total assay volume of 100 μl is used as an enzyme source.
# In the fluorogenic assay Ala-Pro-7-amido-4-trifluoromethylcoumarin (Calbiochem No 125510) is used as a substrate. A 20 mM stock solution in 10% DMF/H2O is stored at −20° C. until use. In IC50 determinations a final substrate concentration of 50 μM is used. In assays to determine kinetic parameters as Km, Vmax, Ki, the substrate concentration is varied between 10 μM and 500 μM.
# In the colorimetric assay H-Ala-Pro-pNA.HCl (Bachem L-1115) is used as a substrate. A 10 mM stock solution in 10% MeOH/H2O is stored at −20° C. until use. In IC50 determinations a final substrate concentration of 200 μM is used. In assays to determine kinetic parameters as Km, Vmax, Ki, the substrate concentration is varied between 100 μM and 2000 μM.
# Fluorescence is detected in a Perkin Elmer Luminescence Spectrometer LS 50B at an excitation wavelength of 400 nm and an emission wavelength of 505 nm continuously every 15 seconds for 10 to 30 minutes. Initial rate constants are calculated by best fit linear regression.
# The absorption of pNA i.e., para-nitroanilin, liberated from the colorimetric substrate is detected in a Packard SpectraCount at […] continuously every 2 minutes for 30 to 120 minutes. Initial rate constants are calculated by best fit linear regression.
# DPP-IV activity assays are performed in 96 well plates at 37° C. in a total assay volume of 100 μl. The assay buffer consists of 50 mM Tris/HCl pH 7.8 containing 0.1 mg/ml BSA and 100 mM NaCl. Test compounds are solved in 100% DMSO, diluted to the desired concentration in 10% DMSO/H2O. The final DMSO concentration in the assay is 1% (v/v). At this concentration enzyme inactivation by DMSO is <5%. Compounds are with (10 minutes at 37° C.) and without preincubation with the enzyme. Enzyme reactions are started with substrate application followed by immediate mixing.
# IC50 determinations of test compounds are calculated by non-linear best fit regression of the DPP-IV inhibition of at least 5 different compound concentrations. Kinetic parameters of the enzyme reaction are calculated at least 5 different substrate concentrations and at least 5 different test compound concentrations.
# T1 sequence (P27487 31-766): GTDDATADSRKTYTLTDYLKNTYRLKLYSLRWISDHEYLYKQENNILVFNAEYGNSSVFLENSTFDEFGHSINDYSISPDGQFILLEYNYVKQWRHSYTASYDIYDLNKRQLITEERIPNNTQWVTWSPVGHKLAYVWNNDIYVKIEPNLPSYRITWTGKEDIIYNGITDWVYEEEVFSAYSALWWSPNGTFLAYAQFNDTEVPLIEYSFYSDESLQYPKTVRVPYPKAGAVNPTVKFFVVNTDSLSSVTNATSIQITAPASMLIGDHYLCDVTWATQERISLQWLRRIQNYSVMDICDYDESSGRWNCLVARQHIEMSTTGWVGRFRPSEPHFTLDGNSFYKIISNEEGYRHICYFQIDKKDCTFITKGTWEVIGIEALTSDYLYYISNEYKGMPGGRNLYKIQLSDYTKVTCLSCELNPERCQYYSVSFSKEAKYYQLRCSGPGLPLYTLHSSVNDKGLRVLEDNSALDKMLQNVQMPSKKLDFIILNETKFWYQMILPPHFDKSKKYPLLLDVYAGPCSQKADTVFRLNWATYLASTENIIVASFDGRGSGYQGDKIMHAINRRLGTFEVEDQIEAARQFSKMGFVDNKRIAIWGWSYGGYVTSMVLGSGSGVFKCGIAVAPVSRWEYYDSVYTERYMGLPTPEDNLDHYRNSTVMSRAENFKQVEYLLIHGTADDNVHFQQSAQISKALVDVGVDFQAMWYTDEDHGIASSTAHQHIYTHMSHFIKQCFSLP
row,Compound,IC50
1,"Cc1ccc(-c2c(CN)c(N)nc3ccccc23)cc1 [Example 25, 3-Aminomethyl-4-p-tolyl-quinolin-2-ylamine]",1910 nM
2,"NCc1c(N)nc2ccc(Cl)cc2c1-c1ccccc1Cl [Example 28, 3-Aminomethyl-6-chloro-4-(2-chloro-phenyl)-quinolin-2-ylamine]",1590 nM
3,"NCc1c(N)nc2ccccc2c1-c1ccccc1Cl [Example 32, 3-Aminomethyl-4-(2-chloro-phenyl)-quinolin-2-ylamine]",366 nM

# The next lines start with the values.
row,IC50,Compound
1,18 nM,"NCc1c(N)nc2c(c1-c1ccc(Cl)cc1Cl)COc1ccccc1-2 [Example 9, 2-Aminomethyl-1-(2,4-dichloro-phenyl)-10H-9-oxa-4-aza-phenanthren-3-ylamine]"
2,2.7 nM,"COc1cc2c(cc1OC)-c1nc(N)c(CN)c(-c3ccc(Cl)cc3Cl)c1C2 [Example 7, 3-Aminomethyl-4-(2,4-dichloro-phenyl)-7,8-dimethoxy-5H-indeno[1,2-b]pyridin-2-ylamine]"
3,80 nM,"NCc1c(N)nc2c(c1-c1ccc(Cl)cc1Cl)CCc1sccc1-2 [Example 10, 3-Aminomethyl-4-(2,4-dichloro-phenyl)-5,6-dihydro-thieno[2,3-h]quinolin-2-ylamine]"
4,45 nM,"NCc1c(N)nc2c(c1-c1ccc(Cl)cc1Cl)CCc1ccccc1-2 [Example 3, 3-Aminomethyl-4-(2,4-dichloro-phenyl)-5,6-dihydro-benzo[h]quinolin-2-ylamine]"
